Entries after “also recorded” stand apart in the source; their conditions may differ.
Legend:
[1] = tested on: primary cocultures of central neurons and oligodendrocytes; test: In vitro myelination (MS) model, A2B5 and MAG immunostaining; assay type: cell-based, rat; conditions: for conclusion: effect on OPC and OL: 1 pmol/L to 10 μmol/L
Experimental: A reproducible in vitro myelination model based on primary cocultures of central neurons and oligodendrocytes culturing in 96-well plate is used and adapted to high throughput screening.
Neurons/oligodendrocytes were cultured as previously described by Charles et al., 2000. PNAS 97 7585-7590.
Briefly, pregnant Wistar female rats of 17 days gestation were killed by cervical dislocation (Janvier Labs, France) and the foetuses removed from the uterus. The forebrains were removed and placed in ice-cold medium of Leibovitz (L15; Pan Biotech, Germany) containing 2% of Penicillin-Streptomycin (Batch 1451013, PanBiotech) and 1% of bovine serum albumin (BSA) (Batch K180713, Pan Biotech). Cortexes were dissociated by trypsinisation for 20 min at 37° C., with Trypsin EDTA 1× (Batch 7310713, PanBiotech). The reaction was stopped by the addition of Dulbecco's modified Eagle's medium (DMEM) (Batch 9710913, PanBiotech) containing DNAase I grade II at 0.1 mg/mL (Batch H131108, PanBiotech) and 10% of foetal calf serum (Batch 41Q7218K, Invitrogen, France). Cells were then mechanically dissociated by 3 passages through a 10 mL pipette. Cells were centrifuged at 180×g for 10 min at 4° C. temperature on a layer of BSA (3.5%) in L15 medium. The supernatant was discarded and cells of the pellet were re-suspended in DMEM containing 10% of FCS. […] The supernatant was discarded and cells of pellet were re-suspended in a culture medium consisting of Neurobasal (Batch 1625353, Invitrogen) supplemented with 2% of B27 (Batch 1618508, Invitrogen), 2 mM of L-glutamine (Batch 6620314, PanBiotech), 2% of PS solution, 1% of foetal calf serum (FCS) and 10 ng/mL of platelet-derived growth factor (PDGF-AA) (Batch H131205, PanBiotech).
The plates were maintained at 37° C. in a humidified incubator, in an atmosphere of air (95%)-CO2 (5%). Half of the medium was changed every 2 days with fresh medium in presence or absence of compound.
The cells were then permeabilized and non-specific sites were blocked with a solution of phosphate buffered saline (Batch 3010914, PanBiotech) containing 0.1% of saponin (Batch BCBJ8417V, Sigma) and 1% FCS for 15 min at room temperature.
On day 12, cells were incubated with Monoclonal Anti-A2B5 conjugated Alexa Fluor® 488 produced in mouse (Batch 2281669, Millipore, France) at dilution of 1/200 in PBS containing 1% FCS, 0.1% saponin, and with anti-MAP-2 antibody produced in chicken (Batch GR180541-3, AbCam; United Kingdom) at dilution of 1/1000 in PBS containing 1% FCS, 0.1% saponin for 2 h at room temperature.
On day 18, cells were incubated with Monoclonal Anti-MAG antibody produced in mouse (Batch 2301638, Millipore) at dilution of 1/400 in PBS containing 1% FCS, 0.1% saponin, and with anti-MAP-2 antibody produced in chicken at dilution of 1/1000 in PBS containing 1% FCS, 0.1% saponin for 2 h at room temperature.
The immunolabeled cultures were automatically examined with ImageXpress (Molecular Devices) equipped with a LED at ×20 magnification. For each condition, 30 pictures (representing ˜80% of the total surface of the well) per well were taken. All images were taken with the same conditions. Number of A2B5 positive cells and number of MAG positive cells were automatically analyzed by using Custom module editor (Molecular Devices). Data were expressed in percentage of control conditions (no plant extract=100%). All values were expressed as mean+/−SEM (s.e.mean) of the 6 wells. Graphs and statistical analyses are made on the different conditions (ANOVA followed by Dunnett's test when allowed, using GraphPad Prism software).

[2] = tested on: primary rat dopaminergic neurons (TH positive neurons); test: Neuroprotection after MPP+ exposure, TH immunostaining; assay type: cell-based; conditions: for neuroprotective effect on TH positive neurons: 1 pmol/L to 10 μmol/L
Experimental: This study investigated the neuroprotective effect of the Compound CR777B of example 1 on rat primary mesencephalic cultures following exposure to 1-methyl-4-phenyl pyridinium (MPP^+).
Rat dopaminergic neurons were cultured as described by Visanji et al., 2008 FASEB J. 2008; 22(7):2488-97. Briefly, the midbrains obtained from 15-day old rat embryos (Janvier Labs, France) were dissected under a microscope. The embryonic midbrains were removed and placed in ice-cold medium of Leibovitz (L15, Batch 4290114, Pan Biotech, Germany) containing 2% of Penicillin-Streptomycin (PS, Batch 1451013, Pan Biotech) and 1% of bovine serum albumin (BSA, Batch K030913, Pan Biotech). The ventral portion of the mesencephalic flexure, a region of the developing brain rich in dopaminergic neurons, was used for the cell preparations.
The midbrains were dissociated by trypsinisation for 20 min at 37° C. […] The cells were seeded in supplemented neurobasal medium at a density of 40 000 cells/well in 96 well-plates pre-coated with poly-L-lysine (Batch 3102256, Corning Biocoat) and maintained in a humidified incubator at 37° C. in 5% CO2/95% air atmosphere. Half of the medium was changed every 2 days with fresh medium.
On day 6 of culture, the medium was removed and fresh medium was added, without or with MPP+ at 4 μM diluted in control medium and let for 48 h. In parallel, compound CR777B and withaferin A were solved in culture medium and then pre-incubated with mesencephalic neurons 1 hour before the MPP+ application (48 h).
48 hours after intoxication, the cell culture supernatant was taken off and the dopaminergic neurons were fixed by a solution of 4% paraformaldehyde in PBS, pH=7.3 for 20 min at room temperature.
After permeabilization with 0.1% of saponin (Merck, France), cells were incubated for 2 hours with monoclonal Anti-Tyrosine Hydroxylase (TH) antibody produced in mouse at dilution of 1/10000 in PBS containing 1% FCS, 0.1% saponin, for 2 h at room temperature.
The immunolabeled cultures were automatically examined with ImageXpress (Molecular Devices, United Kingdom) equipped with a LED at ×10 magnification. […] All images were taken with the same conditions. Analysis were automatically performed by using Custom Module Editor (Molecular Devices).
Data were expressed in percentage of control conditions (no injury, no compound=100%). All values were expressed as mean+/−SEM (standard error mean) of the 6 wells with statistical analyses on the different conditions (ANOVA followed by Dunnett's test when allowed, using GraphPad Prism software).

[3] = tested on: primary rat cortical neurons; test: Neuron survival and neurite network after glutamate injury, MAP-2 immunostaining
[4] = tested on: human HCT-116 colorectal carcinoma; test: Cell growth inhibition by MTS assay (cytotoxicity); assay type: cell-based; conditions: for IC50: Homo sapiens, HCT-116, MTS assay, 72 h of incubation, triplicate, read-out: IC50 mM HCT116
Experimental: (§1) Human MRC-5 cell line derived from normal lung tissue and human HCT-116 colorectal carcinoma were obtained from the American Type Culture Collection (ATCC, Rockville, Md.). Cell lines were cultured according to the supplier's instructions. Human HCT-116 cells were grown in Gibco McCoy's 5A supplemented with 10% fetal calf serum (FCS) and 1% glutamine. Human MRC-5 cells were grown in DMEM supplemented with 10% fetal calf serum (FCS) and 1% glutamine.
(§2) Cells were counted using a Vi-cell XR (Beckman Coulter) and their viability assessed by 0.25% trypan blue dye exclusion. They were tested for the presence of mycoplasma before experiments with the Mycoplasma PCR Detection Kit (Applied Biological Materials Inc., Canada) in accordance with the manufacturer instructions and only mycoplasma-free cells were used for further investigations.
(§3) Cell lines were maintained at 37° C. in a humidified atmosphere containing 5% CO2. Cell growth inhibition was determined by an MTS assay according to the manufacturer's instructions (Promega, Madison, Wis., USA). […] After 24 h of culture, the cells were treated with the compound CR777B of example 1 or with the withaferine at 8 different final concentrations. Each concentration was obtained from serial dilutions in culture medium starting from the stock solution. Control cells were treated with the vehicle. Experiments were performed in triplicate.
(§4) After 72 h of incubation, 20 μL of CellTiter 96® AQueous One Solution Reagent was added for 2 h before recording absorbance at 490 nm with a spectrophotometric plate reader. The dose-response curves were plotted with Graph Prism software and the IC50 values were calculated using the Graph Prism software from polynomial curves (four or five-parameter logistic equations).

[5] = tested on: Human MRC-5 cell line derived from normal lung tissue; test: Cell growth inhibition by MTS assay (cytotoxicity); assay type: cell-based; conditions: MRC5, 72 h of incubation, triplicate
Experimental: as §1, §2, §3, §4

[6] = tested on: primary motor neuron culture from rat spinal cord; test: Motor neuron survival after glutamate exposure (in vitro ALS model), MAP-2 immunostaining; assay type: cell-based; conditions: for protective effect on motor neurons: 1 pM to 10 μM
Experimental: The aim of this study was to study the effect of CR777B on primary motor neuron culture from rat spinal cord (SC) injured by glutamate exposure (a well validated in vitro ALS model and model of motor neuron diseases).
Rat SC motor neurons were cultured as described by Martinou et al., Neuron. […] Briefly, pregnant female rats (Wistar, Janvier labs) of 14 days gestation were killed by cervical dislocation. […] The medium was changed every day.
For each condition, 6 wells were assessed, 30 pictures per well were taken using ImageXpress (Molecular Devices) with 20× magnification, to assess motor neuron survival (MAP-2). Analysis of picture was done using Custom Module Editor (Molecular Devices). Results were expressed in terms of mean survival neuron, labeled for MAP-2. Data were expressed in percentage of control conditions (no intoxication, no glutamate=100%) in order to express the glutamate injury. All values were expressed as mean+/−SEM (s.e.mean) of the culture (n=6 wells per condition per culture). Graphs and statistical analyses are made on the different conditions (ANOVA followed by PLSD Fisher's test when allowed, using Statview software version 5.0).

[7] = added 1 h before MPP+ (4 μM) and let for 48 h
[8] = added 1 h before glutamate (40 μM, 20 min) and let for 48 h
[9] = added 1 h before glutamate (5 μM, 20 min)
[10] = after 12 or 18 days of incubation

CC1=C(CO)C(=O)O[C@@H]([C@@H](C)[C@H]2CCC3C4C[C@H]5O[C@]56[C@@H](O)C(SC[C@H](NC(=O)CC[C@@H](N)C(=O)O)C(=O)NCC(=O)O)CC(=O)[C@]6(C)C4CC[C@@]32C)C1 (some centres unmarked) [CR777B]
conclusion: effect on OPC and OL [1]: significantly increase the number of OPC and OL | OPC number (A2B5 positive cells) ([1]; after 12 days of incubation): significant increase of OPC | concentration of maximal effect on OPC number (bell shape curve) ([1]; after 12 days of incubation): 100 pM | total number of OPCs at the highest doses ([1]; after 12 days of incubation, highest doses): decrease of the total number of OPCs | myelination of neurons by OL (MAG expression) ([1]; after 18 days of treatment): significantly improved the myelination of neurons by OL | number of MAG positive cells (OL) ([1]; after 18 days of treatment): increase the number of MAG positive cells | concentrations with toxic effect on TH positive neurons [2, 7]: 10 µM | neuroprotective effect on TH positive neurons [2, 7]: significant protective effect (neuron survival and preservation of neurite network) at all doses (except at the highest dose) | concentration with toxicity on neurite network [3, 8]: 10 µM | IC50 [4]: 0.00266 mM | toxicity on the cells compared with withaferin ([4]; whatever the cell line tested (HCT116 and MRC5)): less toxic than the compound withaferin | IC50 [5]: 0.0036 mM | MN protective effect at the 2 highest doses ([6]; 2 highest doses (1 and 10 μM), glutamate 5 μM, 20 min): inactive | concentration of maximal MN protective effect (bell shape curve) ([6]; added 1 h before glutamate (5 μM, 20 min), then 48 h): 100 nM | protective effect on motor neurons [6, 9]: significant protective effect at all doses (except at the 2 highest doses)

CC1=C(CO)C(=O)O[C@@H]([C@@H](C)[C@H]2CC[C@H]3[C@@H]4C[C@H]5O[C@]56[C@@H](O)C=CC(=O)[C@]6(C)[C@H]4CC[C@]23C)C1 [Withaferin A, (4β,5β,6β,22R)-4,27-Dihydroxy-5,6:22,26-diepoxyergosta-2,24-diene-1,26-dione]
conclusion: effect on OPC and OL [1]: toxic for OPC and OL at all doses | number of OL [1, 10]: significant decrease of the number of OL | toxicity / OPC proliferation [1, 10]: large toxic and/or inhibition of the OPC proliferation | toxicity for TH positive neurons ([2]; MPP+ 4 μM, 48 h, highest doses): toxic for TH positive neurons at the highest doses | neuroprotective effect on TH positive neurons [2, 7]: did not show any neuroprotective effect | neuroprotective effect on TH positive neurons ([2]; added 1 h before MPP+ (4 μM) and let for 48 h, listed as withaferin A): did not show any effect | protection of neurons from death [3, 8]: did not protect neurons from death | IC50 [4]: 0.00037 mM | IC50 [5]: 0.00025 mM | toxicity for MN ([6]; MN injured by glutamate (5 μM, 20 min)): toxic for MN injured by glutamate | protective effect on motor neurons [6, 9]: did not show a protective effect; also recorded: did not show any neuroprotective effect

N[C@@H](CCC(=O)O)C(=O)O [Glutamate, glutamate]
neuronal death and neurite network loss ([3]; glutamate 40 μM, 20 min): significant neuronal death and neurite network loss | motor neuron death ([6]; glutamate 5 μM for 20 min): > 30%

C[n+]1ccc(-c2ccccc2)cc1 [MPP+, 1-methyl-4-phenyl pyridinium]
TH positive neuron cell death ([2]; MPP+ 4 μM, 48 h): > 35%
